Test results published in patent publication US6670144B1 (priority 1999, dated 2003).
Where no end group is shown, it is not given here.

What was measured:
Src kinase = Src kinase (Homo sapiens, UniProt P12931); experiment: FRET assay of Src phosphorylation of rhodamine labelled SHPS-1 peptide, read by binding to SHP2-GFP; type: biochemical; settings: 10 μM staurosporine added before the Src enzyme; FIG. 19
Protocol: These FRET-based assays are performed to measure Src kinase activity as determined by the Src kinase dependent formation of a complex between the SH2 domain of SHP2 labelled with a fluorophore and an synthetic peptide based on SHPS-1, also labelled with a fluorophore.
Interaction between the tandem SH2 domain of SHP2 and a synthetic peptide based on SHPS-1 is mediated by the state of phosphorylation of the peptide. A FRET partnership can be established between phosphorylated peptide and the SH2 domain providing both moieties are labelled with suitable fluorophores which are brought into close proximity upon interaction of binding partners. […]
SHP2-GFP was diluted to 0.5 μM in assay buffer (50 mM Tris HCL pH 7.2, 10 mM β-mercaptoethanol, 0.5 mg/ml BSA, 0.015% Brij 35). […] Initial readings of the fluorescence of the SHP2-GFP construct were made using 485 nm excitation wavelength and 520 nm emission wavelength. Rhodamine labelled peptide (2 μl of the above phosphorylation reactions) was added to the SHP2-GFP solution and formation of FRET was monitored in real-time by measuring the decrease in fluorescence emission of SHP2-GFP at 520 nm as shown in FIG. 17. […]

[1] = target: Yersinia protein tyrosine phosphatase (YOP) (Yersinia enterocolitica, UniProt P15273); type: biochemical; settings: read-out: IC50 for inhibition of YOP
Sequence of Yersinia protein tyrosine phosphatase (YOP) (P15273 whole entry): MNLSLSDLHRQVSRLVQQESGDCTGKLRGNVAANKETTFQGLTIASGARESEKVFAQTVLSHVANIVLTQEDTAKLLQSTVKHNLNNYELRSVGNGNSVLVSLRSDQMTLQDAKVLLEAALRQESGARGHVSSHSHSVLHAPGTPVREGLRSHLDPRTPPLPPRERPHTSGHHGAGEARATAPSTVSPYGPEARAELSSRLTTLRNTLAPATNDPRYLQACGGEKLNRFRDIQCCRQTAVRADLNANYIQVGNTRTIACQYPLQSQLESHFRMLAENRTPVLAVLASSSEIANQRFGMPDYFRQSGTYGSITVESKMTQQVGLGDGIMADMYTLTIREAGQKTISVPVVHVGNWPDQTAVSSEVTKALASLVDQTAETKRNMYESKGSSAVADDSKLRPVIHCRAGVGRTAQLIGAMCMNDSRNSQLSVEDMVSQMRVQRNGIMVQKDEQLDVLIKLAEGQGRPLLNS

Chk1 protein kinase [2] = target: T1, Chk1 protein kinase (Homo sapiens, UniProt O14757); settings: EDTA 10 mM or 20 mM added prior to enzyme addition; FIG. 8
T1 sequence (O14757 whole entry): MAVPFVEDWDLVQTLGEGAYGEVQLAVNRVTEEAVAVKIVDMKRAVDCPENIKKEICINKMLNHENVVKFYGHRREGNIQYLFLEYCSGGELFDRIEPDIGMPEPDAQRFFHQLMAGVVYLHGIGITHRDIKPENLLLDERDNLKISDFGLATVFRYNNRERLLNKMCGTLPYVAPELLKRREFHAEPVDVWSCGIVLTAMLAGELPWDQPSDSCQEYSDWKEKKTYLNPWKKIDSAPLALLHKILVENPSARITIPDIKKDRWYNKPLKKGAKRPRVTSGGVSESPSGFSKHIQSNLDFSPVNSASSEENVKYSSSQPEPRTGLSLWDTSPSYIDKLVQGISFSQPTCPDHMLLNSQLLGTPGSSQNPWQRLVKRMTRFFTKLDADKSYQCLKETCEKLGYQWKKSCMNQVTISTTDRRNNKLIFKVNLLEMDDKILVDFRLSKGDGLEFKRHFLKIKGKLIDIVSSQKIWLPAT

Chk1 protein kinase [3] = target: T1, Chk1 protein kinase; settings: EDTA 1 mM, 5 mM or 20 mM added before 21 mU Chk1; FIG. 11
[4] = target: T2, PKA Peptide 2, labelled with biotin and bound to streptavidin, non-phosphorylated (biotin label (bound to streptavidin in the assay)); experiment: fluorescence polarisation of coumarin labelled peptide 1 with biotin labelled peptide 2 on streptavidin
T2 construct: Coiled-coil forming peptide with a PKA phosphorylation site
T2 peptide: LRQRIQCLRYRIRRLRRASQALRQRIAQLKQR

Sequence of Src kinase (P12931 whole entry, the tested form may be a part): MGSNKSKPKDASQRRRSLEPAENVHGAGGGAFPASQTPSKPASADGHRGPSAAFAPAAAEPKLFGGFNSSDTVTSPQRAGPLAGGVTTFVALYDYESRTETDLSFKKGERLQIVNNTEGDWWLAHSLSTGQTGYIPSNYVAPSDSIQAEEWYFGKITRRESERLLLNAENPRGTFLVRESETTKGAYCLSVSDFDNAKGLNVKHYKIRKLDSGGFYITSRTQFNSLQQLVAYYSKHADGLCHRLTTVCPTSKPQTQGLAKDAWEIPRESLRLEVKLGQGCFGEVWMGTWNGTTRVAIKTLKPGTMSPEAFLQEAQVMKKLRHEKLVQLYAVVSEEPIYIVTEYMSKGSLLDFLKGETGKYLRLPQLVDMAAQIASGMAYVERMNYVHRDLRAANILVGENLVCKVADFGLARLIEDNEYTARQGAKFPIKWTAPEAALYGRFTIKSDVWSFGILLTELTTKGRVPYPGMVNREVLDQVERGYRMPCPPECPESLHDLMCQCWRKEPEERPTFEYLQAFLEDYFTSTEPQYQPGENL

With `CN[C@@H]1C[C@H]2O[C@@](C)([C@@H]1OC)n1c3ccccc3c3c4c(c5c6ccccc6n2c5c31)C(=O)NC4` [staurosporine] the “Inhibition of Src: formation of FRET partnership between SH2 domain of SHP2 and SHPS-1 peptide” value (Src kinase) was “failed to form a FRET partnership”.

`[Na+].[Na+].[Na+].[O]=[V]([O-])([O-])[O-]` [vanadate, Sodium orthovanadate] was tested, and the IC50 [1] was 250 nM.

`O=C(O)CN(CCN(CC(=O)O)CC(=O)O)CC(=O)O` [EDTA] was tested, and the “Inhibition of Chk1 phosphorylation of Chktide peptide (end point)” value (Chk1 protein kinase [2]) was “inhibition” and the “Inhibition of Chk1 phosphorylation of fluorescein labelled Chktide (real time)” value (Chk1 protein kinase [3]) was “inhibition”.

B1: PKA Peptide 1, labelled with coumarin, non-phosphorylated (peptide)
peptide: EREIKALEREIRRLRRASQALEREIAQLERE
modifications: also: coumarin label, position not given here
notes: Coiled-coil forming peptide with a PKA phosphorylation site; also called coumarin labelled peptide 1
B1: binds [4].
